Laboratory results from paper PMC6814738, “Bacterial MgrB peptide activates chemoreceptor Fpr3 in mouse accessory olfactory system and drives avoidance behaviour” (Nature Communications, 2019).
Peptide text beside a SMILES is read from it. * marks the point of attachment. For = O=C*

Key:
Fpr1 = details: cited from earlier work
Description: (§1) We estimate the fraction of knobs responding to f-MKKFRW as ~0.15%, which is similar to the fraction of cells in the VNE that express Fpr3[30]. Strikingly, the sensitivity and sequence-selectivity profile of these responses was nearly identical to the results that we obtained for heterologously expressed Fpr3. The detection threshold of native VSNs for f-MKKFRW was ≤0.1 µM (Fig. 4f), virtually the same as for Fpr3-expres ...

Fpr2 = details: cited from earlier work
Description: as §1

Fpr3-expressing VSNs [1] = test: Egr1 induction in Fpr3-positive VSNs after oronasal peptide application, RNAscope (Fig. 7c, e); assay type: in vivo, mouse; details: 100 µM, male B6 mice
Description: (§2) For each mouse, serial coronal VNO cryosections (12 µm) were collected as two alternate sets, each representing every second section of the whole VNO. One set was subjected to RNAscope in situ hybridisation using the RNAscope Fluorescent Multiplex Detection Kit (ACD Bio-Techne) and specific probes for Fpr3 and LacZ according to the manufacturer’s protocol. Sections were incubated in 1 x citrate buffer pH 6.0 (DAKO, Germany) for 5 min at 98 °C in a coplin jar, rinsed twice in distilled water, dehydrated in 100% ethanol, and air dried prior to protease III treatment for 30 min at 40 °C. After rinsing in distilled water, sections were simultaneously hybridised with RNA scope target probes generated for mouse Fpr3 and E.coli LacZ (ACD Bio-Techne). The Fpr3 probe was designed as channel 1 probe containing 7 ZZ structures targeting base pairs 456–1143 of NM_008042.2, specific to mouse Fpr3. The LacZ probe, designed as channel 3 probe contains 30 ZZ structures targeting the region 279–1790 bp of KC847299.1 (cat# 313451-C3). […] Following hybridisation (2 h, 40 °C), sections were rinsed twice for 2 min in wash buffer (ACD Bio-Techne), and sequentially treated with amplification solutions at 40 °C (30 min Amp1-FL, 15 min Amp2-FL, 30 min Amp3-FL) and fluorescence reagent (15 min, 40 °C Amp4-altC), with intermitting washing steps at room temperature between reagents. Cell nuclei were stained with DAPI solution (ACD Bio-Techne) for 1 min, and tissue sections were mounted with DAKO fluorescence medium and stored for 12 h at 4 °C. Fluorescence images of the RNAscope results were acquired from each section using a Zeiss LSM 880 confocal microscope containing a 32-channel GaAsP-PMT and 2-channel PMT QUASAR detector.
We stimulated adult male B6 mice with f-MKKFRW (100 µM) and performed double-labelling RNAscope in situ hybridisation for Fpr3 and the immediate early gene Egr1 on VNO tissue sections. […] VNO tissue was prepared for RNAscope fluorescence in situ hybridisation as described above using Fpr3 and Egr1 probes simultaneously. […]

Fpr3-expressing VSNs [2] = test: Egr1 induction in Fpr3-positive VSNs after voluntary peptide uptake in freely behaving mice, RNAscope (Fig. 7d, f); assay type: in vivo, mouse; details: male B6 mice
Description: as §2, with “°C.” for “°C. After rinsing in distilled water, sections were simultaneously hybridised with RNA scope target probes generated for mouse Fpr3 and E.coli LacZ (ACD Bio-Techne). The Fpr3 probe was designed as channel 1 probe containing 7 ZZ structures targeting base pairs 456–1143 of NM_008042.2, specific to mouse Fpr3. The LacZ probe, designed as channel 3 probe contains 30 ZZ structures targeting the region 279–1790 bp of KC847299.1 (cat# 313451-C3).”, “detector. […]” for “detector.”

Row | Compound | activation of Fpr1, in words (Fpr1) | activation of Fpr2, in words (Fpr2) | Egr1-positive / Fpr3-positive VSNs (Fpr3-expressing VSNs [1]; oronasal) | fraction of Fpr3-positive VSNs co-localised with Egr1 (Fpr3-expressing VSNs [1]; oronasal, mean ± s.d.) | Egr1 induction in Fpr3-positive VSNs (Fpr3-expressing VSNs [1]; oronasal or voluntary uptake, both types of experiments) | fraction of Fpr3-positive VSNs co-localised with Egr1 (Fpr3-expressing VSNs [2]; 100 µM in 50% FEU, mean ± s.d.) | Egr1-positive / Fpr3-positive VSNs (Fpr3-expressing VSNs [2]; 100 µM)
1 | f-MGFFIS [bacterial signal peptide fragment] | activates Fpr1 | activates Fpr1 and Fpr2 |  |  |  |  | 
2 | CSCC[C@H](NC=O)C(=O)N[C@@H](CCCCN)C(=O)N[C@@H](CCCCN)C(=O)N[C@@H](Cc1ccccc1)C(=O)N[C@@H](CCCNC(=N)N)C(=O)N[C@@H](Cc1c[nH]c2ccccc12)C(=O)O [f-MKKFRW] (For-MKKFRW-OH) |  |  | 145/317 | 0.46 ± 0.11 | ~ 50% | 0.46 ± 0.12 | 77/160
